Assay [1] relates to male stroke-prone spontaneously hypertensive rats (SHRSP/izm). Description: Preventive action on hypertension and cardiac hypertrophy in male rats. Conditions: 8 weeks. In kind it is in vivo, rat. As to the method: The ability of the composition of the invention to prevent a rise in blood pressure and cardiac hypertrophy was researched using male rats. Firstly, 5- to 6-week-old male stroke-prone spontaneously hypertensive rats (SHRSP/izm) were grouped into a resveratrol group and a control group. The rats were fed ad libitum with “Powdery Mixed Feed SP” (manufacture by Funahashi Farm). The resveratrol group was administered resveratrol in an amount of 5 mg/kg per day. The administration was conducted by the intended clinical route, i.e., orally. The rats were force-fed orally once a day with a Teflon gastric tube. The dose was adjusted to 1 ml per 100 g of the body weight using a water for injection listed in The Japanese Pharmacopoeia, calculated according to the measured body weight of the individual rats. The control group was given the same amount of the water for injection listed in the Japanese Pharmacopoeia only. Each group had 5 rats that were bred for 8 weeks. The blood pressure of the rats was measured every 2 weeks without anesthesia by means of a rat caudal artery sphygmomanometer. After the breeding period, the rats were slaughtered for dissection and the ratio of the weight of the heart to the total body weight of the rats was measured.

Assay [2] concerns ovariectomized female stroke-prone spontaneously hypertensive rats (SHRSP/izm). Description: Preventive action on decrease in bone weight in ovariectomized rats (climacteric conditions). The settings on record: left thigh bone, resveratrol in feed about 20 mg/kg per day, 8 weeks, mean ± SD, n = 5. In kind it is in vivo, rat. As to the method: Rats subjected to climacteric conditions were studied to estimate the effect of the composition of the invention in preventing a decrease in bone weight. Specifically, 18-week-old female stroke-prone spontaneously hypertensive rats (SHRSP/izm) were ovariectomized and subjected to climacteric conditions. Then, the rats were grouped into a resveratrol group to which resveratrol was administered and a control group. Also provided was a sham group of rats which received a sham operation, that is, a laparotomy without ovary removal. The rats were fed ad libitum. The control group and sham group were fed with “Powdery Mixed Feed SP” (manufactured by Funahashi Farm), and the resveratrol group was fed with the same feed with resveratrol added thereto. The amount of added resveratrol administered was adjusted to about 20 mg/kg per day. Each group had 5 rats that were bred for 8 weeks. After the breeding period, the rats were slaughtered for dissection. The left thigh bone was removed from each group's rats. The thigh bones were tested for their bone density and measured for their breaking load and breaking energy values using “EZ-test” (manufactured by Shimadzu Corporation), whereby their bone strength was evaluated.

The subject of a further assay is osteoblastic cells. Conditions: cultured osteoblastic cell strain; Biochem. Biophys. Res. Commun. 253, 859–863 (1998); cited from earlier work.
Assay [3] has as its system ovariectomized female stroke-prone spontaneously hypertensive rats (SHRSP/izm). Description: Preventive action on hypertension, cardiac hypertrophy and cerebral apoplexy in ovariectomized rats. In kind it is in vivo, rat. Conditions: feed with 1.5 g/kg of resveratrol added, 8 weeks. An excerpt: Rats subjected to climacteric conditions were studied to estimate the effect of the composition of the invention in preventing a rise in blood pressure, cardiac hypertrophy and cerebral apoplexy. Specifically, 18-week-old female stroke-prone spontaneously hypertensive rats (SHRSP/izm) were ovariectomized and subjected to climacteric conditions. Then, the rats were grouped into a resveratrol group and a control group. Also provided a sham group of rats which received a sham operation, that is, a laparotomy without ovary removal. The rats were fed ad libitum. The control group and sham group were fed with “Powdery Mixed Feed SP” (manufactured by Funahashi Farm), and the resveratrol group was fed with the same mixed feed with 1.5 g/kg of resveratrol added. Five rats in each group were bred for 8 weeks. The blood pressure of the rats was measured every week without anesthesia by means of a rat caudal artery sphygmomanometer. After the breeding period, the rats were slaughtered for dissection.

Molecules are shown by their SMILES.

Turning to `Oc1ccc(C=Cc2cc(O)cc(O)c2)cc1` [Resveratrol, 3,5,4′-stilbenetriol], the “Heart weight per body weight” value in assay [1] (5 mg/kg per day orally by gastric tube, mean ± SD, n = 5) is on record as 0.557 ± 0.024%. In assay [1] (5 mg/kg per day orally, caudal artery sphygmomanometer, every 2 weeks), the “Inhibition of rise in blood pressure (FIG. 2)” value is on record as “significantly higher action to inhibit a rise in the blood pressure”. In assay [2] (EZ-test), this compound yielded a Breaking energy of 0.0523 ± 0.0073 J and a Breaking load of 99.46 ± 9.57 N. In assay [2], this compound returned a Bone density of 1.479 ± 0.281 g/mL. Further, in the assay on osteoblastic cells, the “Activity of alkaline phosphatase” value is “accelerates the activity of alkaline phosphatase”, the “Activity of prolyl hydroxylase” value was “enhances the activity of prolyl hydroxylase” and the “Proliferation of osteoblastic cells” value is “accelerates the proliferation of osteoblastic cells”. In assay [3], the “Blood pressure compared with sham group” value was “about the same as that of the sham group”. Moreover, the “Cerebral infarction in brain tissue” value in assay [3] (5 rats, control group 4 rats out of 5) is reported as “not found in any rats”. For the same compound, the “Inhibition of rise in blood pressure (FIG. 1)” value in assay [3] (caudal artery sphygmomanometer, weekly, without anesthesia) is given as “significantly higher action to inhibit a rise in the blood pressure than the control group”. Also, in assay [3] (mean ± SD, n = 5), the “Brain weight per body weight” value worked out at 0.803 ± 0.02% and the “Heart weight per body weight” value is reported as 0.424 ± 0.023%.

These data come from patent US7163961B1, “Drugs, foods and oral compositions containing stilbene-type compounds” (Sunstar Inc., priority 1999, dated 2007).
